Among the data in patent US7709482B2, “Polycyclic heteroaryl substituted triazoles useful as Axl inhibitors” (Rigel Pharmaceuticals, Inc., priority 2006, dated 2010) are IC50 values, retold here.

The assay addresses T1, Axl (Homo sapiens, UniProt P30530).
T1 construct: endogenous in cells; host or cells: HeLa cells
T1 sequence (P30530 26-894): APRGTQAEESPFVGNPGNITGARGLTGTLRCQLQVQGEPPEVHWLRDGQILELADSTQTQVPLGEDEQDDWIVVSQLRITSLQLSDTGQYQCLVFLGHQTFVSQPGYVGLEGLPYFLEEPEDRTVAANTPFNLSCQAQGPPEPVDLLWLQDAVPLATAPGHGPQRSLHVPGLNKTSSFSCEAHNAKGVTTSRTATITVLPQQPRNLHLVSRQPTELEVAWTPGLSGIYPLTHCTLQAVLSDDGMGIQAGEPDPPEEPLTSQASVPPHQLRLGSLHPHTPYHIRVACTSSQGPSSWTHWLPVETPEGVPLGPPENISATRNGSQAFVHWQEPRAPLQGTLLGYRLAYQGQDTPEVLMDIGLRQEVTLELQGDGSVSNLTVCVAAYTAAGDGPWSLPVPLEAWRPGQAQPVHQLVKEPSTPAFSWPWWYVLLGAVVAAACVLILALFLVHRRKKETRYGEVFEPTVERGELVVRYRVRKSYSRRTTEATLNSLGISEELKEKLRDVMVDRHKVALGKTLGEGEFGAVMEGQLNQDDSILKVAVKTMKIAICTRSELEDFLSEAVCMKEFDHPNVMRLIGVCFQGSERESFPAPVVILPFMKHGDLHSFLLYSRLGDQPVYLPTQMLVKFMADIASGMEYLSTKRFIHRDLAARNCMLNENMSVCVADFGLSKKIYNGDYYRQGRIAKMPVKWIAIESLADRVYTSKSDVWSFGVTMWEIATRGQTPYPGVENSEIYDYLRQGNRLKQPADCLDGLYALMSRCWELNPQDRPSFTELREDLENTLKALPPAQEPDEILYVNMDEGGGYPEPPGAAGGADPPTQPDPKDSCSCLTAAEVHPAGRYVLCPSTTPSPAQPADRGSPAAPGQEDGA
Briefly: Phospho-Akt In-Cell Western Assay (inhibition of Axl activity after Axl-antibody cross-linking). The conditions noted are these: read-out: IC50. Format: cell-based. The gist of the method: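 Phospho-Akt was detected in formaldehyde-fixed cells by in-cell immunostaining with HRP chemiluminescence. Before fixation, HeLa cells kept 24 h in low-serum medium containing 500 ng/mL Axl/Fc received compound for 1 h at 37 °C, followed by 5-min Axl activation through antibody clustering.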

[1] abbreviates: inhibition of Axl activity, Table 1, compounds of formula (Ia).
Where [2] appears, read: Hela cells, phospho-Akt chemiluminescence normalized to relative cell number, compounds of formula (Ib), Table 2.
Where [3] appears, read: Hela cells, phospho-Akt chemiluminescence normalized to relative cell number, compounds of formula (Ia), Table 1.

The structures appear in SMILES notation. Read-outs that look alike come from different tables or passages of the source.

Take `CCN(CC)CCC1CCCc2ccc(Nc3nc(N)n(-c4cc5c(nn4)-c4ccccc4CCC5)n3)cc2C1O` (stereo not shown) [Compound 208, 1-(6,7-dihydro-5H-benzo[6,7]cyclohepta[1,2-c]pyridazin-3-yl)-N^3-(8-diethylaminoethyl-9-hydroxy-6,7,8,9-tetrahydro-5H-benzo[7]annulene-2-yl)-1H-1,2,4-triazole-3,5-diamine]: the IC50 (as a rule, the point on the concentration scale where inhibition reaches its midpoint) under setting [1] lay in the range of 1000 to 10000 nM.

In the case of `CC1CN(c2ccc(Nc3nc(N)nn3-c3cc4c(nn3)-c3ccccc3CCC4)cc2)CC(C)N1` (stereo not shown) [Compound 160, 1-(6,7-dihydro-5H-benzo[6,7]cyclohepta[1,2-c]pyridazin-3-yl)-N^5-(4-(3,5-dimethylpiperazin-1-yl)phenyl)-1H-1,2,4-triazole-3,5-diamine], under setting [2], the IC50 is less than 1000 nM.

Take `CN(C)C1CCN(c2ccc(Nc3nc(N)n(-c4cc5c(nn4)-c4ccccc4CCC5)n3)cc2F)CC1` [Compound 61, 1-(6,7-dihydro-5H-benzo[6,7]cyclohepta[1,2-c]pyridazin-3-yl)-N^3-(3-fluoro-4-(4-dimethylaminopiperidin-1-yl)phenyl)-1H-1,2,4-triazole-3,5-diamine]: under setting [3], the IC50 was less than 1000 nM.

With `CN1CCN(c2ccc(Nc3nc(N)n(-c4cc(-c5ccccc5)c5c(n4)-c4ccccc4CCC5)n3)cc2)CC1` [Compound 193, 1-(4-phenyl-6,7-dihydro-5H-benzo[6,7]cyclohepta[1,2-b]pyridin-2-yl)-N^3-(4-(4-methylpiperazin-1-yl)phenyl)-1H-1,2,4-triazole-3,5-diamine], the IC50 under setting [1] is 1000 to 10000 nM.

Take `CN1CCC(N2CCc3ccc(Nc4nc(N)n(-c5cc6c(nn5)-c5ccccc5CCC6)n4)cc3C2)CC1` [Compound 215, 1-(6,7-dihydro-5H-benzo[6,7]cyclohepta[1,2-c]pyridazin-3-yl)-N^3-(2-(1-methylpiperidin-4-yl)-1,2,3,4-tetrahydroisoquinolin-7-yl)-1H-1,2,4-triazole-3,5-diamine]: the 50% inhibitory concentration (IC50) under setting [1] was less than 1000 nM.

With `CCN(CC)CCN(C)C1CCc2ccc(Nc3nc(N)n(-c4cc5c(nn4)-c4ccccc4CCC5)n3)cc2CC1` (stereo not shown) [Compound 231, 1-(6,7-dihydro-5H-benzo[6,7]cyclohepta[1,2-c]pyridazin-3-yl)-N^3-(7-(2-(diethylamino)ethyl)methyl-amino-6,7,8,9-tetrahydro-5H-benzo[7]annulene-2-yl)-1H-1,2,4-triazole-3,5-diamine], under setting [1], the half-maximal inhibitory concentration (IC50) is less than 1000 nM.

For `CN1CCc2ncc(Nc3nc(N)n(-c4cc5c(nn4)-c4ccccc4CCC5)n3)cc2C1` [Compound 28, 1-(6,7-dihydro-5H-benzo[6,7]cyclohepta[1,2-c]pyridazin-3-yl)-N^3-(6-methyl-5,6,7,8-tetrahydro-1,6-naphthyridin-3-yl)-1H-1,2,4-triazole-3,5-diamine], under setting [3], the IC50 was less than 1000 nM.

`Nc1nc(Nc2ccc(N3CCCN(C4CC5CCC4C5)CC3)nc2)nn1-c1cc2c(nn1)-c1ccccc1CCC2` (stereo not shown) [Compound 140, 1-(6,7-dihydro-5H-benzo[6,7]cyclohepta[1,2-c]pyridazin-3-yl)-N^3-(6-(4-(bicyclo[2.2.1]heptan-2-yl)-1,4-diazepan-1-yl)pyridin-3-yl)-1H-1,2,4-triazole-3,5-diamine]: the IC50 under setting [1] was less than 1000 nM.

In the case of `Nc1nc(Nc2ccc(N3CCC(N4CCCC4)CC3)c(F)c2)nn1-c1cc2c(nn1)CCCc1ccccc1-2` [Compound 71, 1-(6,7-dihydro-5H-benzo[6,7]cyclohepta[4,5-c]pyridazin-2-yl)-N^3-(3-fluoro-4-(4-(pyrrolidinyl)piperidinyl)-phenyl)-1H-1,2,4-triazole-3,5-diamine], the IC50 under setting [3] is less than 1000 nM.

Turning to `CN(C1CCc2ccc(Nc3nc(N)n(-c4cc5c(nn4)-c4ccccc4CCC5)n3)cc2CC1)C1CC2CCC1C2` (stereo not shown) [Compound 24, 1-(6,7-dihydro-5H-benzo[6,7]cyclohepta[1,2-c]pyridazin-3-yl)-N^3-(7-((bicyclo[2.2.1]heptan-2-yl)(methyl)amino)-6,7,8,9-tetrahydro-5H-benzo[7]annulene-2-yl)-1H-1,2,4-triazole-3,5-diamine], under setting [3], the 50% inhibitory concentration (IC50) lay within 1000 to 10000 nM.

Take `Nc1nc(Nc2ccc(C=CCN3CCOCC3)cc2)nn1-c1cc2c(nn1)-c1ccccc1CCC2` [Compound 207, 1-(6,7-dihydro-5H-benzo[6,7]cyclohepta[1,2-c]pyridazin-3-yl)-N^3-(4-(morpholin-4-ylprop-1-enyl)phenyl)-1H-1,2,4-triazole-3,5-diamine]: the half-inhibitory concentration (IC50) under setting [1] is less than 1000 nM.

With `Nc1nc(Nc2ccc(N3CCC(N4CCCC4)CC3)c(Cl)c2)nn1-c1cc2c(nn1)-c1ccccc1CCC2` [Compound 62, 1-(6,7-dihydro-5H-benzo[6,7]cyclohepta[1,2-c]pyridazin-3-yl)-N^3-(3-chloro-4-(4-pyrrolidin-1-yl-piperidin-1-yl)phenyl)-1H-1,2,4-triazole-3,5-diamine], under setting [3], the IC50 was less than 1000 nM.

As for `Nc1nc(Nc2ccc(OCCN3CCCC3)cc2)nn1-c1cc2c(nn1)-c1ccccc1CCC2` [Compound 1, 1-(6,7-dihydro-5H-benzo[6,7]cyclohepta[1,2-c]pyridazin-3-yl)-N^3-(4-(2-(pyrrolidin-1-yl)ethoxy)phenyl)-1H-1,2,4-triazole-3,5-diamine], under setting [3], the IC50 is less than 1000 nM.

As to `COC(=O)[C@@H]1CCCN1C1CCc2ccc(Nc3nc(N)n(-c4cc5c(nn4)-c4ccccc4CCC5)n3)cc2CC1` (stereo partly drawn) [Compound 194, 1-(6,7-dihydro-5H-benzo[6,7]cyclohepta[1,2-c]pyridazin-3-yl)-N^3-((7-(2-(S)-methyloxycarbonyl)pyrrolidin-1-yl)-6,7,8,9-tetrahydro-5H-benzo[7]annulene-2-yl)-1H-1,2,4-triazole-3,5-diamine], under setting [1], the IC50 is less than 1000 nM.

On to `Nc1nc(Nc2ccc(N3CCC(N4CCOCC4)CC3)c(F)c2)nn1-c1cc2c(nn1)-c1ccccc1CCC2` [Compound 9, 1-(6,7-dihydro-5H-benzo[6,7]cyclohepta[1,2-c]pyridazin-3-yl)-N^3-(3-fluoro-4-(4-(morpholin-4-yl)piperidin-1-yl)phenyl)-1H-1,2,4-triazole-3,5-diamine], for which the 50% inhibitory concentration (IC50) under setting [3] was in the range of 1000 to 10000 nM.

As to `C[C@H]1CN(c2ccc(Nc3nc(N)n(-c4cc5c(nn4)-c4ccccc4CCC5)n3)cn2)CCN1CC1CC1` [Compound 202, 1-(6,7-dihydro-5H-benzo[6,7]cyclohepta[1,2-c]pyridazin-3-yl)-N^3-(2-(3-(S)-methyl-4-cyclopropylmethylpiperazin-1-yl)pyridine-5-yl)-1H-1,2,4-triazole-3,5-diamine], the half-maximal inhibitory concentration (IC50) under setting [1] is less than 1000 nM.

Regarding `CN1CCC2(CCN(c3ccc(Nc4nc(N)nn4-c4cc5c(nn4)-c4ccccc4CCC5)cc3F)C2)C1` (stereo not shown) [Compound 169, 1-(6,7-dihydro-5H-benzo[6,7]cyclohepta[1,2-c]pyridazin-3-yl)-N^5-(3-fluoro-4-(7-methyl-2,7-diazaspiro[4.4]nonan-2-yl)phenyl)-1H-1,2,4-triazole-3,5-diamine], the IC50 under setting [2] was 1000 to 10000 nM.

On to `CN(C)CCNC(=O)c1ccc(Nc2nc(N)n(-c3cc4c(nn3)-c3ccccc3CCC4)n2)cc1` [Compound 19, 1-(6,7-dihydro-5H-benzo[6,7]cyclohepta[1,2-c]pyridazin-3-yl)-N^3-(4-((2-(dimethylamino)ethyl)-aminocarbonyl)phenyl)-1H-1,2,4-triazole-3,5-diamine], for which the half-inhibitory concentration (IC50) under setting [3] fell in the range of 1000 to 10000 nM.

On to `Nc1nc(Nc2ccc3c(c2)CNCC3)n(-c2cc3c(nn2)-c2ccccc2CCC3)n1` [Compound 243, 1-(6,7-dihydro-5H-benzo[6,7]cyclohepta[1,2-c]pyridazin-3-yl)-N^5-(1,2,3,4-tetrahydroisoquinolin-7-yl)-1H-1,2,4-triazole-3,5-diamine], for which the IC50 under setting [2] fell in the range of 1000 to 10000 nM.

With `Nc1nc(Nc2ccc(N3CCN4CCCCC4C3)c(F)c2)nn1-c1cc2c(nn1)-c1ccccc1SCC2` (stereo not shown) [Compound 129, 1-(6,7-dihydro-5H-benzo[2,3]thiepino[4,5-c]pyridazin-3-yl)-N^3-(3-fluoro-4-(octahydro-1H-pyrido[1,2-a]pyrazin-2-yl)phenyl)-1H-1,2,4-triazole-3,5-diamine], the IC50 under setting [1] was less than 1000 nM.

On to `Nc1nc(Nc2ccc3c(c2)CCC(NC2CCCC2)CC3)nn1-c1cc2c(nn1)-c1ccccc1CCC2` (stereo not shown) [Compound 186, 1-(6,7-dihydro-5H-benzo[6,7]cyclohepta[1,2-c]pyridazin-3-yl)-N^3-(7-cyclopentylamino-6,7,8,9-tetrahydro-5H-benzo[7]annulene-2-yl)-1H-1,2,4-triazole-3,5-diamine], for which the IC50 under setting [1] is less than 1000 nM.

As for `Nc1nc(Nc2ccc(C(=O)NCCN3CCCC3)cc2)nn1-c1cc2c(nn1)-c1ccccc1CCC2` [Compound 12, 1-(6,7-dihydro-5H-benzo[6,7]cyclohepta[1,2-c]pyridazin-3-yl)-N^3-(4-((2-pyrrolidin-1-ylethyl)aminocarbonyl)phenyl)-1H-1,2,4-triazole-3,5-diamine], the concentration for half-maximal inhibition (IC50) under setting [3] is less than 1000 nM.
